Source: article PMC6968643, “Synthesis and biological evaluation of novel (E)-N'-benzylidene hydrazides as novel c-Met inhibitors through fragment based virtual screening” (Journal of Enzyme Inhibition and Medicinal Chemistry, 2020)

Assays:
recombinant c-Met kinase = recombinant c-Met kinase (Homo sapiens, UniProt P08581); assay: Cell-free detection of c-Met kinase activity (ADP-Glo assay)
Procedure: The capacity of the novel compounds for inhibiting c-Met activity was evaluated using a cell-free assay.

VEGFR-2 = VEGFR-2 (Homo sapiens, UniProt P35968); assay: Kinase activity against VEGFR-2; type: biochemical; conditions: for IC50: Table 3, inhibitory activity (IC50) against VEGFR-2, – = no inhibitory effect
VEGFR-2, sequence (P35968 20-1356): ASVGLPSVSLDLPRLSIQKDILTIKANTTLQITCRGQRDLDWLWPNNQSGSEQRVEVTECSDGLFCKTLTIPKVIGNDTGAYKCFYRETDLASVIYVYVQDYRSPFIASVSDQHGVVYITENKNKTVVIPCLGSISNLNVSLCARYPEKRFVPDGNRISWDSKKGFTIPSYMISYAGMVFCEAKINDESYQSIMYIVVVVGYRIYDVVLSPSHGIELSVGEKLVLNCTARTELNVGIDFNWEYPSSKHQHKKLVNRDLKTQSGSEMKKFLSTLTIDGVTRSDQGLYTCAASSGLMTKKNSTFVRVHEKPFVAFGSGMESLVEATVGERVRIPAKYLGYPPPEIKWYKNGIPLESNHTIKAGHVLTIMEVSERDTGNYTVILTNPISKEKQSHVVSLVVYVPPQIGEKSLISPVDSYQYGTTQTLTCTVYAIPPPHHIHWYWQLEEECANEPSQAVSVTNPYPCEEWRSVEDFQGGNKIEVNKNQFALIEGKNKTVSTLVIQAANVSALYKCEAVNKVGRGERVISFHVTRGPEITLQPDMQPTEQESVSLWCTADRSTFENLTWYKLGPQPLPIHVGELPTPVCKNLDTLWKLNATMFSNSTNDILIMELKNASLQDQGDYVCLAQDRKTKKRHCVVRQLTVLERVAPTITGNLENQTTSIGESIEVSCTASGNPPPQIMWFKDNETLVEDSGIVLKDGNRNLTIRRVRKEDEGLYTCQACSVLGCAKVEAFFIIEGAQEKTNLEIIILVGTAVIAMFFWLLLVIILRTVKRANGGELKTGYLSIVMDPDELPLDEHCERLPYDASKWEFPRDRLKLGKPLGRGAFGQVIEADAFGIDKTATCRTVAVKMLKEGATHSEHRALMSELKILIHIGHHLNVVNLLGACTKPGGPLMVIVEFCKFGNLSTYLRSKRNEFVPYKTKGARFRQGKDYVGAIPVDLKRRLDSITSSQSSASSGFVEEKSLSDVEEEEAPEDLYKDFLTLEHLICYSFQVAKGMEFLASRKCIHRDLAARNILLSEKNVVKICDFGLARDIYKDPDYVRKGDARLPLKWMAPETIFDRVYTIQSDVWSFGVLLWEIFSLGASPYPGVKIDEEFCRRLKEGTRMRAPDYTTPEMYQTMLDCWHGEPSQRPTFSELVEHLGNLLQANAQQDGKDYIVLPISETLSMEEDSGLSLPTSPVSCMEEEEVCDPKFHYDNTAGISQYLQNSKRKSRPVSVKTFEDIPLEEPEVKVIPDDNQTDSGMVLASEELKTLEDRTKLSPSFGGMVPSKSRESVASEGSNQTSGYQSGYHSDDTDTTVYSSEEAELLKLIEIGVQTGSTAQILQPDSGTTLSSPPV
From the text: It was consistent with the QSAR predicted results. […] Both of the proteins belong to the family of tyrosine kinase, which catalyse the phosphorylation of tyrosine. […] While subtle differences may make small molecules show different activities against the two kinases. So we superimposed the two kinases in three dimensions to explore the reason.

recombinant c-Met kinase, sequence (P08581 25-1390): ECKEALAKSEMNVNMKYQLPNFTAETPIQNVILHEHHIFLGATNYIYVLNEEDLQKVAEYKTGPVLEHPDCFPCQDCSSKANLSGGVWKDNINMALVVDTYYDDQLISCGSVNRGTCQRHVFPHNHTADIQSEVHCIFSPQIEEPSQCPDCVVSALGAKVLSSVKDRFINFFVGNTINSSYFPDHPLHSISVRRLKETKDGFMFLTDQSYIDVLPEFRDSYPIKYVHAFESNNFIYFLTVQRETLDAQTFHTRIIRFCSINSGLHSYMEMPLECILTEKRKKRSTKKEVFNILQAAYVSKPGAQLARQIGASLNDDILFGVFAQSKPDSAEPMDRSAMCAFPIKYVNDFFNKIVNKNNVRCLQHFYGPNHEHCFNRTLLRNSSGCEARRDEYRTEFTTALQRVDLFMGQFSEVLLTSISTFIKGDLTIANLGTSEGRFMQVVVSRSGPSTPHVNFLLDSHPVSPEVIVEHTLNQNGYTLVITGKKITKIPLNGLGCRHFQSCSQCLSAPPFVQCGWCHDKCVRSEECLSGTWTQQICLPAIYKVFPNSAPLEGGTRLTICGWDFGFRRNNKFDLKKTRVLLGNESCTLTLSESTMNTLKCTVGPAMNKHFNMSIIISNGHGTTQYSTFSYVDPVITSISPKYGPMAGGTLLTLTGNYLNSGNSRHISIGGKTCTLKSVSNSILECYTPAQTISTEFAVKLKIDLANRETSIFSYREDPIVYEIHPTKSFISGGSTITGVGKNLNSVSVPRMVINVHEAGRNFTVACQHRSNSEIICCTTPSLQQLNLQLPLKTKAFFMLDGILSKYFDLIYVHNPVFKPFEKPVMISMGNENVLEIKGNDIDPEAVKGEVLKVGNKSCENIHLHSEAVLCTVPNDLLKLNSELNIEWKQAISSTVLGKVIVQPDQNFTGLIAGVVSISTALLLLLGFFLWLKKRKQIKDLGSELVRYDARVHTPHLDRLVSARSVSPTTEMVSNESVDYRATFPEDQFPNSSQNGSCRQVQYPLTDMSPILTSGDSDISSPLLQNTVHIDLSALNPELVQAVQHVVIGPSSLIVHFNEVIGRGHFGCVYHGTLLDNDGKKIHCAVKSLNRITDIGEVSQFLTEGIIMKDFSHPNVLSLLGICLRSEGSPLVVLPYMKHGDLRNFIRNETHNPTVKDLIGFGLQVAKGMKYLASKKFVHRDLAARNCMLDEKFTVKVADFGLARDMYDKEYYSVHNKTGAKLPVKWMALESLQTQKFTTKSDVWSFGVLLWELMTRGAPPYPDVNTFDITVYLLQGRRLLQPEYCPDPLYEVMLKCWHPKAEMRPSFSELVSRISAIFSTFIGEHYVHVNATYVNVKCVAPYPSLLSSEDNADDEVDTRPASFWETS

SMILES	melting point [°C]	IC50 (recombinant c-Met kinase) [nM]	activity against VEGFR-2 (in words) (VEGFR-2)	IC50 (VEGFR-2) [nM]
CC(=O)Nc1cccc(-c2cn(CC(=O)N/N=C/c3ccc(Cl)cc3)nn2)c1 [Compound 10a, (E)-2-(4-(3-acetamidophenyl)-1H-1,2,3-triazol-1-yl)-N'-(4-chlorobenzylidene)]	234.6 to 234.9	1.7	–	–
CC(=O)Nc1cccc(-c2cn(CC(=O)N/N=C/c3cccc(Cl)c3)nn2)c1 [Compound 10b, (E)-2-(4-(3-acetamidophenyl)-1H-1,2,3-triazol-1-yl)-N'-(3-chlorobenzylidene)]	255.8 to 256.3	0.37	no activity	> 12000
CC(=O)Nc1cccc(-c2cn(CC(=O)N/N=C/c3ccc(O)cc3)nn2)c1 [Compound 10c, (E)-2-(4-(3-acetamidophenyl)-1H-1,2,3-triazol-1-yl)-N'-(4-hydroxybenzylidene) acetohydrazide]	260 to 260.8	11200	–	–
CC(=O)Nc1cccc(-c2cn(CC(=O)N/N=C/c3ccccc3O)nn2)c1 [Compound 10d, (E)-2-(4-(3-acetamidophenyl)-1H-1,2,3-triazol-1-yl)-N'-(2-hydroxybenzylidene) acetohydrazide]	253.8 to 254.2	266	–	–
CC(=O)Nc1cccc(-c2cn(CC(=O)N/N=C/c3ccccc3[N+](=O)[O-])nn2)c1 [Compound 10e, (E)-2-(4-(3-acetamidophenyl)-1H-1,2,3-triazol-1-yl)-N'-(2-nitrobenzylidene)acetohydrazide]	233.2 to 233.8	5860	–	–
CC(=O)Nc1cccc(-c2cn(CC(=O)N/N=C/c3cc(Cl)ccc3O)nn2)c1 [Compound 10f, (E)-2-(4-(3-acetamidophenyl)-1H-1,2,3-triazol-1-yl)-N'-(5-chloro-2-hydroxybenzylidene) acetohydrazide]	234.6 to 234.9	1.19	–	139
CC(=O)Nc1cccc(-c2cn(CC(=O)N/N=C/c3cc(Br)cc(Br)c3O)nn2)c1 [Compound 10g, (E)-2-(4-(3-acetamidophenyl)-1H-1,2,3-triazol-1-yl)-N'-(3,5-dibromo-2-hydroxybenzylidene)acetohydrazide]	237 to 237.5	8930	–	–
CC(=O)Nc1cccc(-c2cn(CC(=O)N/N=C/c3cc(Br)ccc3O)nn2)c1 [Compound 10h, (E)-2-(4-(3-acetamidophenyl)-1H-1,2,3-triazol-1-yl)-N'-(5-bromo-2-hydroxybenzylidene) acetohydrazide]	228.9 to 229.3	> 12000	–	–
COc1ccc(/C=N/NC(=O)Cn2cc(-c3cccc(NC(C)=O)c3)nn2)c(OC)c1 [Compound 10i, (E)-2-(4-(3-acetamidophenyl)-1H-1,2,3-triazol-1-yl)-N'-(2,4-dimethoxybenzylidene) acetohydrazide]	210.9 to 211.3	1.73	–	–
COc1ccc(/C=N/NC(=O)Cn2cc(-c3cccc(NC(C)=O)c3)nn2)cc1OC [Compound 10j, (E)-2-(4-(3-acetamidophenyl)-1H-1,2,3-triazol-1-yl)-N'-(3,4-dimethoxybenzylidene) acetohydrazide]	230 to 230.6	5.42	–	–
COc1cc(/C=N/NC(=O)Cn2cc(-c3cccc(NC(C)=O)c3)nn2)cc(OC)c1OC [Compound 10k, (E)-2-(4-(3-acetamidophenyl)-1H-1,2,3-triazol-1-yl)-N'-(3,4,5-trimethoxybenzylidene) acetohydrazide]	210.2 to 212.9	91.5	–	–
O=C(Cn1cc(-c2ccccc2)nn1)N/N=C/c1ccc(Cl)cc1 [Compound 11a, (E)-N'-(4-chlorobenzylidene)-2-(4-phenyl-1H-1,2,3-triazol-1-yl)acetohydrazide]	259 to 259.6	> 12000	–	–
O=C(Cn1cc(-c2ccccc2)nn1)N/N=C/c1cccc(Cl)c1 [Compound 11b, (E)-N'-(3-chlorobenzylidene)-2-(4-phenyl-1H-1,2,3-triazol-1-yl)acetohydrazide]	259 to 259.8	3.41	–	25.3
O=C(Cn1cc(-c2ccccc2)nn1)N/N=C/c1ccc(O)cc1 [Compound 11c, (E)-N'-(4-hydroxybenzylidene)-2-(4-phenyl-1H-1,2,3-triazol-1-yl)acetohydrazide]	234 to 234.5	5680	–	–
O=C(Cn1cc(-c2ccccc2)nn1)N/N=C/c1ccccc1O [Compound 11d, (E)-N'-(2-hydroxybenzylidene)-2-(4-phenyl-1H-1,2,3-triazol-1-yl)acetohydrazide]	239 to 239.6	> 12000	–	–
O=C(Cn1cc(-c2ccccc2)nn1)N/N=C/c1ccccc1[N+](=O)[O-] [Compound 11e, (E)-N'-(2-nitrobenzylidene)-2-(4-phenyl-1H-1,2,3-triazol-1-yl)acetohydrazide]	225.2 to 225.6	4280	–	–
O=C(Cn1cc(-c2ccccc2)nn1)N/N=C/c1cc(Cl)ccc1O [Compound 11f, (E)-N'-(5-chloro-2-hydroxybenzylidene)-2-(4-phenyl-1H-1,2,3-triazol-1-yl)acetohydrazide]	240 to 240.6	> 12000	–	9860
O=C(Cn1cc(-c2ccccc2)nn1)N/N=C/c1cc(Br)cc(Br)c1O [Compound 11g, (E)-N'-(3,5-dibromo-2-hydroxybenzylidene)-2-(4-phenyl-1H-1,2,3-triazol-1-yl) acetohydrazide]	231 to 231.5	> 12000	–	–
O=C(Cn1cc(-c2ccccc2)nn1)N/N=C/c1cc(Br)ccc1O [Compound 11h, (E)-N'-(5-bromo-2-hydroxybenzylidene)-2-(4-phenyl-1H-1,2,3-triazol-1-yl)acetohydrazide]	233 to 233.5	11.9	–	–
COc1ccc(/C=N/NC(=O)Cn2cc(-c3ccccc3)nn2)c(OC)c1 [Compound 11i, (E)-N'-(2,4-dimethoxybenzylidene)-2-(4-phenyl-1H-1,2,3-triazol-1-yl)acetohydrazide]	230 to 230.4	> 12000	–	849
COc1ccc(/C=N/NC(=O)Cn2cc(-c3ccccc3)nn2)cc1OC [Compound 11j, (E)-N'-(3,4-dimethoxybenzylidene)-2-(4-phenyl-1H-1,2,3-triazol-1-yl)acetohydrazide]	232.1 to 232.5	3080	–	–
COc1cc(/C=N/NC(=O)Cn2cc(-c3ccccc3)nn2)cc(OC)c1OC [Compound 11k, (E)-2-(4-phenyl-1H-1,2,3-triazol-1-yl)-N'-(3,4,5-trimethoxybenzylidene)acetohydrazide]	233.5 to 233.8	> 12000	–	–
